Patent US20160324884A1, “TREATMENT OF DIABETES WITH PENTACYCLIC TRITERPENOID SAPONIN COMPOUNDS FROM SZECHUAN MELANDIUM ROOT” (priority 2013, published 2016)
“Also recorded” adds a separate entry of the source.

Assays:
[1] = system: T2DM rats; test: Fasting glycemia in T2DM model rats (high-fat emulsion + STZ, Example 5); assay type: in vivo, SD rats
From the text: 50 male SD rats (180-200 g, License NO. SCXK (BJ) 2011-0004, Beijing SPF Experimental Animal Technology Co. Ltd.) were adaptively bred for 1 week, and then used in the pharmacological experiment.
Animals were housed individually in wood-chip-bedded plastic cages and fed a standard laboratory chow. All the animals had ad libitum access to food and water.
(§1) 50 SD rats were adaptively bred for 1 week, and then randomly assigned into 5 groups: The control group, model group, Compound (1) group, Compound (2) group and glucobay group (the positive group), 10 rats per group. All the animals were in a standard laboratory diet. Control and model group animals were hypodermically injected with sterile water, test compound treatment groups were subcutaneously injected with the Compounds (1) and (2), and the positive group was administrated glucobay solution by gavage. All the animals were administrated at 9 am for 2 weeks, and the dose volume is 10 ml/kg BW.
(§2) The Compounds (1) and (2) were dissolved into sterile water, and sterilized with filtration, Sc. Glucobay was dissolved into sterile water, lg. Animals in the control and model groups were injected with sterile water (10 ml/kg BW), Sc. All the animals were treated at 9 am for 2 weeks (14 days).
(§3) All rats except the control group were administrated intragastrically with the high-fat emulsion (10 ml/kg) and weighed the body weight weekly. After weeks of administration, rats were intraperitoneally injected with streptozotocin (STZ, dissolved in citric acid-citrate sodium solution, pH 4.2, freshly prepared and used instantly, and store away from light) (30mg/kg). 4 days later, blood glucose level in rats was measured by tail blood test. Diabetes was defined as fasting blood glucose level>11.1 mmol/Lin in this experiment.
The blood glucose level was measured before and after administration of the treatment compounds for 2 weeks, respectively. The animals were fasted overnight and tail blood samples were taken. Fasting glycemia was measured by using One Touch ULTRA Glucometer or kits.

[2] = system: KK^Ay mice; test: Effects of Wacao saponins on glycemia in KK^Ay T2DM mice (Example 2); assay type: in vivo; conditions: for glycemia (fasting tail blood glucose), hypoglycemic activity: after 1 week; for anti-hyperglycemia effect, compounds compared with each other: 2.0 mg/kg BW Sc, 2 weeks, ranking
From the text: (§4) 80 male KK^Ay mice (12 weeks of age, License NO. SCXK (BJ) 2009-0015, Beijing Huafukang Biology Technology Co. Ltd.) and 10 male normal C57BL/6 mice (12 weeks of age, License NO. SCXK (BJ) 2009-0015, Beijing Huafukang Biology Technology Co. Ltd.) were adaptively bred for one week, and then used in the pharmacological experiment.
The animals were housed individually in wood-chip-bedded plastic cages. Germ-free and high-fat diets (Beijing Huafukang Biology Technology Co. Ltd.) were used to feed the KK^Ay mice, and the standard laboratory chows were used to feed normal C57BL/6 mice. All the animals had free access to food and water.
80 KK^Ay mice were adaptively bred for 1 week, and then randomly assigned into 8 groups: Model group, Compound (1) group, Compound (2) group, Compound (3) group, Compound (4) group, Compound (7) group, Compound (8) group and metformin group, 10 mice per group. 10 normal C57BL/6 mice were used as the control group. KK^Ay mice were fed with the high-fat diet, and the control group was fed with the normal control diet. The control and model groups were hypodermically injected with sterile water, 6 medicated groups were hypodermically injected with 6 kinds of Wacao saponins, the Compounds (1), (2), (3), (4), (7) and (8), and the positive group (metformin group) was irrigated per oral. All groups were administrated at 9 am for 2 weeks. The administrating volume is 10 ml/kg BW and the administration dosage is shown in Table3.
All mice of the fasting tail blood glucose level were measured weekly using One Touch ULTRA Glucometer (Life Scan Johnson and Johnson, USA).
Each compound of Wacao saponins was dissolved into sterile water and sterilized with filtration for Sc. The metformin was dissolved into sterile water for lg. The control and model group mice were injected with sterile water, Sc. All the animals were treated at 9 am for 2 weeks.
Overnight fasting tail blood glucose level was measured weekly using One Touch ULTRA Glucometer and measured for twice.
Each group was administrated for 2 weeks (14 days) and then the experiment was terminated.
Results are expressed as means±SD. Statistical analysis were analyzed by using SPSS 10.0 software. Data were evaluated with analysis of variance.

[3] = system: KK^Ay mice; test: Glycemia in KK^Ay mice during treatment and after withdrawal (Example 3); assay type: in vivo; conditions: for descending rates of blood glucose: T2DM mice, 2 mg/kg, two weeks after subcutaneous injection
From the text: as §4, with “60” for “80”, “10 normal” for “10”, “male” for “male normal”, “following” for “pharmacological”
(§5) 60 KK^Ay mice were adaptively bred for 1 week, and then randomly assigned into 6 groups: Model group, Compound (1) group, Compound (2) group, Compound (3) group, Compound (4) group, and metformin group, 10 mice per group. 10 normal C57BL/6 mice were used for the control group. KK^Ay mice were in a high-fat diet, and the control normal mice were in a normal control diet. The control and model groups were hypodermically injected with sterile water, the 6 medicated groups mice were subcutaneously injected with […] Wacao saponins, (Compounds (1), (2), (3) and (4)) respectively, and the positive group was administered metformin by gavage. All mice were administrated at 9 am for 2 weeks and the administration volume is 10 ml/kg BW.
(§6) Compound (1), (2), (3) and (4) were respectively dissolved into sterile water, and sterilized with filtration for Sc. to the medication groups. The metformin was dissolved into sterile water for lg. to the positive control group. Control and model groups animals were injected with sterile water (10 ml/kg BW), Sc. All the animals were treated daily at 9 am for 2 weeks (14 days).
(§7) Blood detection: Blood glucose was measured weekly. Overnight fasting glycemia level was measured with One Touch ULTRA Glucometer for the tail blood test. At the end of the experiment, blood serum was collected for measuring levels of fasting blood glucose and insulin, and the insulin sensitivity index (ISI) was calculated. At the same time, hepatic tissues and skeletal muscles of mice were taken out to determine levels of hepatic and muscle glycogen by detection kits.
Termination of the experiment After administrating mice for 2 weeks (14 days), the experiment was terminated.
This experiment is to observe the anti-hyperglycemia effects of Wacao saponins on KK^Ay mice during and after the period of drug treatment, respectively.

[4] = system: normal ICR mice; test: Glycemia in normal ICR mice (Example 4); assay type: in vivo; conditions: 2.0 mg/kg Sc, after 2 weeks, vs control group
From the text: 40 male ICR mice (20-22g, License NO. SCXK (BJ) 2011-0004, Beijing SPF Experimental Animal Technology Co. Ltd.) were adaptively bred for one week, and then used in the following experiment.
Animals were housed individually in wood-chip-bedded plastic cages and fed the standard laboratory chow. All the animals had ad libitum access to food and water.
40 ICR mice were adaptively bred for 1 week, and then randomly assigned into 4 groups: Model, Compound (1), Compound (2) and metformin group, 10 mice per group. All the animals were fed with normal food. Mice in the control group were hypodermically injected with sterile water. The treated groups were subcutaneously injected with Compounds (1) and (2), respectively. And the positive group was administrated metformin by gavage. All the animals were administrated at 9 am for 2 weeks, and the dose volume is 10 ml/kg BW.
Compound (1) and (2) were respectively dissolved into sterile water, and sterilized with filtration for Sc. The metformin was dissolved into sterile water for lg. to the positive control group. Mice in the control group were injected with sterile water (10 ml/kg BW), Sc. All the animals were treated at 9 am for 2 weeks (14 days).
Blood detection: Blood glucose was measured weekly. Overnight fasting glycemia was measured by One Touch ULTRA Glucometer (LifeScan Johnson and Johnson, USA) for the tail blood test.
End of the experiment: After mice being administrated for 2 weeks (14 days), the experiment was terminated.

[5] = system: T2DM rats; test: Glycosylated serum protein (GSP) and liver and muscle glycogen in T2DM rats (Example 5); assay type: in vivo, SD rats; conditions: 4.0 mg/kg Sc vs glucobay 20 mg/kg lg
From the text: as §1, §2
as §3, with “Diabetes was defined as fasting blood glucose level>11.1 mmol/Lin in this experiment.” left out

[6] = system: KK^Ay mice; test: Hepatic and muscle glycogen in KK^Ay mice (Example 3); assay type: in vivo; conditions: 2.0 mg/kg Sc, after 2 weeks, vs model group
From the text: as §5
(§8) The body weight, food and water intake of each mouse was measured and recorded weekly throughout the course of the experiment. At the end of the experiment, collected the blood and separated serum, fasting blood glucose, insulin levels and insulin sensitivity index (ISI) were measured or calculated in each group. Liver, skeletal muscles of mice in each group were taken and weighed for detecting glycogen levels of the hepatic and muscles after mice being killed.
as §6, §7

[7] = system: KK^Ay mice; test: Body weight, food and water intake in KK^Ay mice (Example 3); assay type: in vivo; conditions: after 1 week, compounds 2.0 mg/kg Sc, metformin 500 mg/kg lg, vs model group
From the text: as §4, with “60” for “80”, “10 normal” for “10”, “male” for “male normal”, “following” for “pharmacological”
The animals were housed individually in wood-chip-bedded plastic cages. Germ-free and high-fat diets (Beijing Huafukang Biology Technology Co. Ltd.) were used to feed the KK^Ay mice. All the animals had free access to food and water.
as §5, §8, §6
Measurement of food and water intake: 24 hours' food and water intake were measured by gravimetry once a week. It should be paid attention to recycling leakage of small forage into the feed box to ensure the accuracy of food intake.
Determination of body weight: The body weight of mice was measured and recorded once a week.
Results are shown as means±SD. Statistical analysis data were analyzed by using SPSS 10.0 software. Data were evaluated with analysis of variance.

[8] = 2.0 mg/kg BW Sc daily, vs model group

Molecule	glycemia (fasting tail blood glucose), hypoglycemic activity [2, 8]	anti-hyperglycemia effect, compounds compared with each other [2]	descending rates of blood glucose [3] [%]	muscle glycogen level [6]	other results
CC(=O)OC1C(OC(=O)/C=C\c2ccc(C)cc2)C(C)OC(OC(=O)[C@@H]2CC(C)(C)C[C@@H]3C2[C@H](O)C[C@]2(C)C3C=C[C@@H]3[C@@]4(C)CC[C@H](OC5OC(C(=O)O)C(O)C(OC6OCC(O)C(O)C6O)C5OC5OC(CO)C(O)C(O)C5O)[C@@](C)(C=O)[C@@H]4CC[C@]32C)C1OC1OC(C)C(O)C(O)C1O (stereo partly shown) [Compound (2), sinocrassuloside VII]	then followed by Compound (2), Compound (4), Compound (3) and Compound (7)	strongest anti-hyperglycemia effect	60	stronger efficacy in raising levels muscle glycogen	anti-hyperglycemia efficacy compared with glucobay ([1]; 4.0 mg/kg Sc vs glucobay 20 mg/kg lg, 2 weeks): stronger than glucobay; glycemia level ([1]; 4.0 mg/kg Sc, after 2 weeks, vs model group): significantly decreased; glycemia level [4]: decreased much obviously; effect on glycogen levels and GSP levels compared with glucobay [5]: better effect on up-regulating of glycogen levels and down-regulating of GSP levels; also recorded: superior to that of glucobay; also recorded: stronger than glucobay
COC(=O)C1OC(O[C@H]2CC[C@]3(C)[C@H]4C=CC5[C@@H]6CC(C)(C)C[C@@H](C(=O)OC7OC(C)C(OC(=O)/C=C/c8ccc(C)cc8)C(OC(C)=O)C7OC7OC(C)C(O)C(O)C7O)C6[C@H](O)C[C@@]5(C)[C@]4(C)CC[C@H]3[C@]2(C)C=O)C(OC2CC(CO)C(O)C(O)C2O)C(OC2OCC(O)C(O)C2O)C1O (stereo partly shown) [Compound (3), sinocrassuloside VIII]	then followed by Compound (2), Compound (4), Compound (3) and Compound (7)	followed by Compound (3) and (4) (cis-trans-isomers), and Compound (7)	60	weaker efficacy in raising level of muscle glycogen which had no statistical significant difference compared with that of the model group	
CN(C)C(=N)N=C(N)N [metformin, reference compound]					food intake [7]: decreased obviously; glycemic level after drug withdrawal ([3]; KK^Ay mice, 2 weeks after stopping 2-week medication, vs model (untreated) group): rebounded to a high level which showed no significant difference compared with that of the model group
sinocrassuloside XII [Compound (7)]	then followed by Compound (2), Compound (4), Compound (3) and Compound (7)	followed by Compound (3) and (4) (cis-trans-isomers), and Compound (7)			
sinocrassuloside XIII [Compound (8)]		no significant effect of anti-hyperglycemia compared with that of the other compounds			glycemia (fasting tail blood glucose), hypoglycemic activity ([2]; 2.0 mg/kg BW Sc daily, vs model group, 2 mg/kg): weakest hypoglycemic activity which has no significant difference compared with that of the model group; also recorded: only the trend of anti-hyperglycemia activity, but showed no statistical difference; glycemia (fasting tail blood glucose) ([2]; 2.0 mg/kg BW Sc daily, after 2 weeks, vs model group): Significant differences appeared
